From paper PMC11249646, “Small-Molecule Disruptors of the Interaction between Calcium- and Integrin-Binding Protein 1 and Integrin αIIbβ3 as Novel Antiplatelet Agents” (ACS Pharmacology & Translational Science, 2024)
Where two headings read alike, the source gives them in different places.

How the values were obtained:
[1] = target: T1, GST-CIB1 : F-scrambled peptide (Homo sapiens, UniProt Q99828); experiment: FP scrambled-peptide counter screen, 1536-well format; assay type: binding; settings: for Confirm? (counterscreen): YES/NO; for Curve Class (counterscreen) / COUNTERSCREEN Curve Class: qHTS curve class
T1 construct: made in house; host or cells: BL-21 plus RIL cells (E. coli)
T1 sequence (Q99828 1-191): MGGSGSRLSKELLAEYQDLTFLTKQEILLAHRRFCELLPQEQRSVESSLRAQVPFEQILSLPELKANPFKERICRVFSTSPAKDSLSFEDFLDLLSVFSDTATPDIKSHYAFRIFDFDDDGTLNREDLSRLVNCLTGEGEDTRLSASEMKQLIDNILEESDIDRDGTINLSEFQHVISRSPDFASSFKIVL

[2] = target: T2, CIB1 and αIIb interaction (CIB1-GST : F-αIIb peptide) (Homo sapiens, UniProt Q99828); experiment: FP assay, 1536-well qHTS format (primary and confirmatory screen); assay type: binding; settings: for Curve Class (confirmatory screen) / CONFIRMATORY SCREEN Curve Class: qHTS curve class
T2 construct: made in house; host or cells: BL-21 plus RIL cells (E. coli)
T2 sequence (Q99828 1-191): T1 sequence (Q99828 1-191)

[3] = counterscreen, negative sign = inhibitory curve
[4] = confirmatory screen, negative sign = inhibitory curve
[5] = confirmatory screen, read-out: IC50 [μM] (confirmatory screen)
[6] = qHTS primary screen hits, Table S2, negative = inhibition
[7] = qHTS primary screen hits, Table S2, negative sign = inhibitory curve
[8] = qHTS primary screen hits, Table S2, read-out: IC50
[9] = qHTS primary screen hits, Table S2, negative sign = inhibitory curve, several classes where COUNT > 1
[10] = counterscreen, read-out: IC50 [μM] (counterscreen)
[11] = qHTS FP screen hits, Table S2, negative = inhibition
[12] = qHTS FP screen hits, Table S2, one class per curve where COUNT > 1, negative sign = inhibitory curve
[13] = qHTS FP screen hits, Table S2, read-out: IC50
[14] = scrambled-peptide counterscreen
[15] = Table S3, counterscreen, a negative sign marks inhibitory curves
[16] = Table S3, counterscreen, negative = inhibition
[17] = Table S3, confirmatory screen, a negative sign marks inhibitory curves
[18] = Table S3, confirmatory screen, negative = inhibition
[19] = Table S3, counterscreen, read-out: IC50 [μM] (counterscreen)
[20] = Table S3, confirmatory screen, YES/NO call
[21] = Table S3, confirmatory screen, read-out: IC50 [μM] (confirmatory screen)

Efficacy (%) (counterscreen) ([1]; counterscreen)	Curve Class (counterscreen) [1, 3]	Efficacy (%) (confirmatory screen) ([2]; confirmatory screen)	Confirm? (confirmatory screen) ([2]; confirmatory screen, YES/NO)	Curve Class (confirmatory screen) [2, 4]	IC50 [2, 5] [µM]	IC50 [1, 10] [µM]	Efficacy (%) [2, 11] [%]	Curve Class [2, 12]	IC50 [2, 13] [µM]	Structure (SMILES)	Efficacy (%) [2, 6] [%]	IC50 [2, 8] [µM]	Curve Class [2, 9]	further results
-19	-1.4	-40	YES	-3	79.4	35.5	–	–	–	Oc1ccc(-c2nnn[nH]2)c2cccnc12 [NCGC00184885-01]	-31	14.1	-1.2	–
-36	-1.2	-97	YES	-1.1	22.4	7.9	–	–	–	Cc1ccc(C)n1-c1sccc1C(=O)O [NCGC00253437-01]	-59	44.7	-2.2	Confirm? (counterscreen) ([1]; counterscreen): YES
-21	4	-56	YES	-2.4	25.1	–	-54	-1.2	28.2	CCC(=O)NC(c1cccs1)c1cc(Br)c2cccnc2c1O (stereo not drawn) [NCGC00183689-01]	–	–	–	Confirm? (counterscreen) ([1]; counterscreen): YES
-54	-2.2	-63	YES	-2.4	50.1	50.1	-28	–	39.8	CN1CCN(c2cccc(Nc3nn4c(=O)c5ccc(Br)cc5nc4s3)c2)CC1.Cl [NCGC00187814-01]	–	–	–	–
93	3	-86	YES	-2.1	28.2	100	-55	-1.2	22.4	CCCCC(CC)CNC(=N)NC(=N)NCCCCCCNC(=N)NC(=N)NCC(CC)CCCC.Cl.Cl.Cl (stereo not drawn) [NCGC00178352-06]	–	–	–	Confirm? (counterscreen) ([1]; counterscreen): YES
-30	-1.4	-63	YES	-1.4	8.9	17.8	–	–	–	COc1cccc2nc(-c3cccs3)nc(NN3C(=O)C=C(C)C3=O)c12 [NCGC00161703-02]	-24	3	–	Curve Class [2, 7]: -1.4
-85	-2.2	-74	YES	-2.2	44.7	89.1	-50	-2.2	50.1	CC(=O)NC(Cc1c[nH]c2ccccc(=O)c12)C(=O)O (stereo not drawn) [NCGC00381382-01]	–	–	–	–
–	–	–	–	–	–	–	-37	-2.2	15.2	CN1CCCN(C(=O)c2cccc(-c3ccc(/C=C4/C(=O)Nc5ccc(Cl)cc54)o3)c2)CC1 [NCGC00346935-01]	–	–	–	Curve Class (counterscreen) [1, 15]: -1.1; Efficacy (%) (counterscreen) [1, 16]: -108%; IC50 [1, 19]: 35.5 µM; Confirm? (confirmatory screen) [2, 20]: YES; Curve Class (confirmatory screen) [2, 17]: -1.3; Efficacy (%) (confirmatory screen) [2, 18]: -102%; IC50 [2, 21]: 35.5 µM
-33	-2.4	-52	YES	-3	79.4	70.8	-59	-3	28.2	CN(C(=O)CN(CCO)CC(=O)N(C)C(C)(C)Cc1ccccc1)C(C)(C)Cc1ccccc1 [NCGC00016382-07]	–	–	–	–

Continued, compound first:

Structure (SMILES)	Efficacy (%) (counterscreen) ([1]; counterscreen)	Curve Class (counterscreen) [1, 3]	Efficacy (%) (confirmatory screen) ([2]; confirmatory screen)	Confirm? (confirmatory screen) ([2]; confirmatory screen, YES/NO)	Curve Class (confirmatory screen) [2, 4]	IC50 [2, 5] [µM]	IC50 [1, 10] [µM]	Efficacy (%) [2, 11] [%]	Curve Class [2, 12]	IC50 [2, 13] [µM]	Efficacy (%) [2, 6] [%]	IC50 [2, 8] [µM]	Curve Class [2, 9]	further results
NC(=O)c1ccnc2c(O)cccc12.O=C(O)C(F)(F)F [NCGC00183783-01]	-17	4	-22	YES	-2.4	50.1	–	–	–	–	-40	20	–	Confirm? (counterscreen) ([1]; counterscreen): YES; Curve Class [2, 7]: -1.2
CC1(C)N=C(Nc2nc3ccccc3o2)NC2=C1C(=O)CCC2.O=C(O)C(F)(F)F [NCGC00187643-01]	–	–	–	–	–	–	–	–	–	–	-35	20	-2.2	COUNTERSCREEN Efficacy (%) ([1]; counterscreen): -12%; COUNTERSCREEN Curve Class ([1]; counterscreen): 4; CONFIRMATORY SCREEN Efficacy (%) ([2]; confirmatory screen): -26%; CONFIRMATORY SCREEN Curve Class ([2]; confirmatory screen): 4
COc1ccc(S(=O)(=O)Nc2cnccc2C(=O)Nc2nc(-c3ccccc3)cs2)cc1.O=C(O)C(F)(F)F [NCGC00344944-01]	-81	-2.2	-81	YES	-2.2	–	44.7	-52	-2.2	39.8	–	–	–	–
O=C(O)C(F)(F)F.O=C(O)c1ccc(O)c2ncc(N3CCC(N4CCOCC4)C3)cc12 (stereo not drawn) [NCGC00241757-01]	–	–	–	–	–	–	–	-22	–	35.5	–	–	–	COUNTERSCREEN Efficacy (%) ([1]; counterscreen): -21%; COUNTERSCREEN Curve Class ([1]; counterscreen): 4; CONFIRMATORY SCREEN Efficacy (%) ([2]; confirmatory screen): -17%; CONFIRMATORY SCREEN Curve Class ([2]; confirmatory screen): 4
O=c1oc2ccccc2c(O)c1C(CC(O)c1ccc(-c2ccc(Br)cc2)cc1)c1ccccc1 (stereo not drawn) [NCGC00163939-02]	–	–	–	–	–	–	–	–	–	–	-58	79.4	-2.2	COUNTERSCREEN Efficacy (%) [1, 14]: 109%; COUNTERSCREEN Confirm? ([1]; scrambled-peptide counterscreen, YES/NO call): YES; COUNTERSCREEN Curve Class [1, 14]: 3; IC50 ([1]; scrambled-peptide counterscreen, read-out: COUNTERSCREEN IC50): 89.1 µM; CONFIRMATORY SCREEN Confirm? ([2]; confirmatory screen, YES/NO call): YES; CONFIRMATORY SCREEN Curve Class [2, 4]: -1.2; CONFIRMATORY SCREEN Efficacy (%) ([2]; confirmatory screen, negative = inhibition): -37%; IC50 ([2]; confirmatory screen, read-out: CONFIRMATORY SCREEN IC50): 12.6 µM
CCOC(=O)C1CCN(C(=O)C(C)(C)NC(=O)Nc2ccc(C#N)cc2)CC1.O=C(O)C(F)(F)F [NCGC00242565-01]	-30	-1.4	-28	YES	-1.4	7.9	15.8	-22	–	2.2	–	–	–	–
COc1ccc(-n2ncc3c2CCCC3NC(=O)c2ccccc2Cl)cc1.O=C(O)C(F)(F)F (stereo not drawn) [NCGC00273443-01]	–	–	–	–	–	–	–	–	–	–	-29	25.1	-2.4	Curve Class (counterscreen) [1, 15]: 4; Efficacy (%) (counterscreen) [1, 16]: 0%; Curve Class (confirmatory screen) [2, 17]: 4; Efficacy (%) (confirmatory screen) [2, 18]: -11%
CO[C@@H]1C(N(C)C(=O)c2ccccc2)C[C@H]2O[C@]1(C)n1c3ccccc3c3c4c(c5c6ccccc6n2c5c31)C(=O)NC4=O (stereo partly drawn) [NCGC00345083-01]	–	–	–	–	–	–	–	–	–	–	-67	19.2	-2.2	Curve Class (counterscreen) [1, 15]: -1.1; Efficacy (%) (counterscreen) [1, 16]: -150%; IC50 [1, 19]: 22.4 µM; Confirm? (confirmatory screen) [2, 20]: YES; Curve Class (confirmatory screen) [2, 17]: -1.2; Efficacy (%) (confirmatory screen) [2, 18]: -78%; IC50 [2, 21]: 14.1 µM
CCOC(=O)c1cc(-c2ccco2)nc2c1c(C)nn2CCC#N.O=C(O)C(F)(F)F [NCGC00037529-03]	-56	-2.4	-61	YES	-2.2	50.1	56.2	-27	–	39.8	–	–	–	–
CN(C)c1ccc(NC(=S)N/N=C2\C(=O)Nc3ccccc32)cc1.O=C(O)C(F)(F)F [NCGC00229526-01]	-44	-1.2	-73	YES	-1.4	10	22.4	–	–	–	-38	3.5	-1.2	–
O=C(O)CCNc1cc(N2CCc3ccccc3CC2)nc(-c2ccccn2)n1 [NCGC00347943-01]	–	–	–	–	–	–	–	–	–	–	–	–	–	COUNTERSCREEN Efficacy (%) ([1]; counterscreen): -35%; COUNTERSCREEN Curve Class ([1]; counterscreen): 4; CONFIRMATORY SCREEN Efficacy (%) ([2]; confirmatory screen): -28%; CONFIRMATORY SCREEN Curve Class ([2]; confirmatory screen): 4
O=C(O)C(F)(F)F.O=S(=O)(Nc1nc2ccccc2s1)c1ccc(NCc2ccc(Br)cc2O)cc1 [NCGC00319026-01]	-15	4	-45	YES	-2.4	–	–	-50	-2.2	39.8	–	–	–	Confirm? (counterscreen) ([1]; counterscreen): YES
